Laboratory results from the Kinase Knowledgebase extract (Sharma et al. 2016).
“And” between values parts separate entries of the source, which are not always exact repeats. Equal values may be shown once.

These molecules were tested against CDK2 (UniProt P24941) (assay: Enzyme Assay).
Work on `[O-][n+]1cccc(CNc2cc(C3CCOCC3)nc3c(Br)cnn23)c1` yielded an IC50 of 0.0001 to 0.1 µM. Molecule `[O-][n+]1cccc(CNc2cc(-c3ccc(Cl)cc3)nc3c(Br)cnn23)c1` has an IC50 of 0.0001 to 0.1 µM. Molecule `[O-][n+]1cccc(CNc2cc(C3CCCCC3)nc3c(Br)cnn23)c1` has an IC50 of 0.0001 to 0.1 µM. Work on `CS(=O)(=O)N1CCC(c2cc(NCc3cccnc3)n3ncc(Br)c3n2)CC1` yielded an IC50 of 0.0001 to 0.1 µM. `NC(=O)N1CCCC(c2cc(NCc3cccnc3)n3ncc(Br)c3n2)C1` (centres undefined) gave an IC50 of 0.0001 to 0.1 µM. For `CNC(=O)c1ccc(CNc2cc(-c3ccccc3F)nc3c(Br)cnn23)cc1`, the IC50 was 0.0001 to 0.1 µM. For `CC(=O)N1CCCC(c2cc(NCc3cccnc3)n3ncc(Br)c3n2)C1` (centres undefined), the IC50 was 0.0001 to 0.1 µM. `Brc1cnn2c(NCc3cccnc3)cc(C3CCCNC3)nc12` (centres undefined) was tested, and the IC50 was 0.0001 to 0.1 µM. With `[O-][n+]1cccc(CNc2cc(N3CCC[C@H]3CO)nc3c(Br)cnn23)c1` the IC50 was 0.0001 to 0.1 µM. For `CCc1cnn2c(NCc3ccc[n+]([O-])c3)cc(-c3ccccc3F)nc12`, the IC50 was 0.0001 to 0.1 µM. In the case of `[O-][n+]1cccc(CNc2cc(-c3ccccc3Cl)nc3c(Br)cnn23)c1`, the IC50 is reported as 0.0001 to 0.1 µM. `O=C(C1CC1)N1CCC(c2cc(NCc3cccnc3)n3ncc(Br)c3n2)CC1` was tested, and the IC50 was 0.0001 to 0.1 µM. Work on `Brc1cnn2c(NCc3ccc(-c4csnn4)cc3)cc(C3CCNCC3)nc12` yielded an IC50 of 0.0001 to 0.1 µM. `NC(=O)N1CCC(c2cc(NCc3cccnc3)n3ncc(Br)c3n2)CC1` showed an IC50 of 0.0001 to 0.1 µM. For `N[C@H]1CC[C@H](Nc2cc(NCc3cccnc3)n3ncc(Br)c3n2)CC1`, the IC50 was 0.0001 to 0.1 µM. With `CCc1cnn2c(NCc3cccnc3)cc(-c3ccccc3)nc12` the IC50 was 0.0001 to 0.1 µM. `OCCC1CCCCN1c1cc(NCc2cccnc2)n2ncc(Br)c2n1` (centres undefined) was tested, and the IC50 was 0.0001 to 0.1 µM. `[O-][n+]1cccc(CNc2cc(-c3ccccc3)nc3c(Br)cnn23)c1` gave an IC50 of 0.0001 to 0.1 µM. For `Cc1ccccc1-c1cc(NCc2ccc[n+]([O-])c2)n2ncc(Br)c2n1`, the IC50 was 0.0001 to 0.1 µM. With `CC(C)(O)[C@@H]1CCCN1c1cc(NCc2ccc[n+]([O-])c2)n2ncc(Br)c2n1` the IC50 was 0.0001 to 0.1 µM. In the case of `OC[C@H]1CCCC[C@H]1c1cc(NCc2cccnc2)n2ncc(Br)c2n1`, the IC50 is reported as 0.0001 to 0.1 µM. Work on `CC(C)(O)[C@@H]1CCCN1c1cc(NCc2cccnc2)n2ncc(Br)c2n1` yielded an IC50 of 0.0001 to 0.1 µM. `CCc1cnn2c(NCc3ccc[n+]([O-])c3)cc(C3CCCCC3)nc12` gave an IC50 of 0.0001 to 0.1 µM. With `Fc1ccccc1-c1cc(NCc2ccncc2)n2ncc(Br)c2n1` the IC50 was 0.032 µM and 0.024 µM. For `CS(=O)(=O)N1CCCC(c2cc(NCc3cccnc3)n3ncc(Br)c3n2)C1` (centres undefined), the IC50 was 0.0001 to 0.1 µM. Molecule `[O-][n+]1cccc(CNc2cc(C3CCNCC3)nc3c(Br)cnn23)c1` has an IC50 of 0.0001 to 0.1 µM. Molecule `CC(C)(CO)Nc1cc(NCc2cccnc2)n2ncc(Br)c2n1` has an IC50 of 0.0001 to 0.1 µM. Molecule `[O-][n+]1cc(CNc2cc(-c3ccccc3)nc3c(Br)cnn23)ccc1OCC(F)(F)F` has an IC50 of 0.0001 to 0.1 µM. Work on `CC1(C)[C@@H]2[C@@H](CO)N(c3cc(NCc4cccnc4)n4ncc(Br)c4n3)C[C@@H]21` yielded an IC50 of 0.0001 to 0.1 µM. In the case of `CC(C)(O)[C@H]1CCCC[C@H]1c1cc(NCc2cccnc2)n2ncc(Br)c2n1`, the IC50 is reported as 0.0001 to 0.1 µM. With `Fc1ccccc1-c1cc(NCc2ccc3[nH]cnc3c2)n2ncc(Br)c2n1` the IC50 was 0.0001 to 0.1 µM. `O=c1cc(CNc2cc(-c3ccccc3)nc3c(Br)cnn23)cc[nH]1` showed an IC50 of 0.0001 to 0.1 µM. With `CC(C)Oc1ccc(CNc2cc(-c3ccccc3F)nc3c(Br)cnn23)c[n+]1[O-]` the IC50 was 0.0001 to 0.1 µM. `Brc1cnn2c(NCc3cccnc3)cc(-c3ccccc3)nc12` was tested, and the IC50 was 0.0001 to 0.1 µM. `O=c1ccc(CNc2cc(-c3ccccc3F)nc3c(Br)cnn23)c[nH]1` was tested, and the IC50 was 0.0001 to 0.1 µM. Molecule `CCOc1ccc(CNc2cc(-c3ccccc3)nc3c(Br)cnn23)c[n+]1[O-]` has an IC50 of 0.0001 to 0.1 µM. Work on `CC(C)[C@@H](CO)Nc1cc(NCc2ccc[n+]([O-])c2)n2ncc(Br)c2n1` yielded an IC50 of 0.0001 to 0.1 µM. `[O-][n+]1cccc(CNc2cc(-c3ccco3)nc3c(Br)cnn23)c1` showed an IC50 of 0.0001 to 0.1 µM. Molecule `Brc1cnn2c(NCc3cccnc3)cc(C3CCCCC3)nc12` has an IC50 of 0.0001 to 0.1 µM. With `Cn1cnc2cc(CNc3cc(-c4ccccc4)nc4c(Br)cnn34)ccc21` the IC50 was 0.0001 to 0.1 µM. `Oc1cc(CNc2cc(C3CCCCC3)nc3c(Br)cnn23)ccn1` showed an IC50 of 0.0001 to 0.1 µM. With `Nc1ncc(CNc2cc(C3CCCNC3)nc3c(Br)cnn23)cn1` (centres undefined) the IC50 was 0.0001 to 0.1 µM. Work on `CCc1cnn2c(NCc3ccc[n+]([O-])c3)cc(-c3ccccc3)nc12` yielded an IC50 of 0.0001 to 0.1 µM. Work on `OCC[C@@H]1CCCN1c1cc(NCc2cccnc2)n2ncc(Br)c2n1` yielded an IC50 of 0.0001 to 0.1 µM. With `OCC1CCCCN1c1cc(NCc2cccnc2)n2ncc(Br)c2n1` (centres undefined) the IC50 was 0.0001 to 0.1 µM. For `CC(C)c1cc(NCc2ccc[n+]([O-])c2)n2ncc(Br)c2n1`, the IC50 was 0.0001 to 0.1 µM. `COc1ccc(CNc2cc(-c3ccccc3F)nc3c(Br)cnn23)c[n+]1[O-]` was tested, and the IC50 was 0.0001 to 0.1 µM. `[O-][n+]1cccc(CNc2cc(-c3ccccc3F)nc3c(Br)cnn23)c1` was tested, and the IC50 was 0.0001 to 0.1 µM. For `COc1c(Cl)cc(CNc2cc(-c3ccccc3)nc3c(Br)cnn23)c[n+]1[O-]`, the IC50 was 0.0001 to 0.1 µM. `O=c1ccc(CNc2cc(-c3ccccc3)nc3c(Br)cnn23)c[nH]1` showed an IC50 of 0.0001 to 0.1 µM. `CC(C)[C@H](CO)Nc1cc(NCc2ccc[n+]([O-])c2)n2ncc(Br)c2n1` was tested, and the IC50 was 0.0001 to 0.1 µM. `[O-][n+]1cccc(CNc2cc(-c3cccs3)nc3c(Br)cnn23)c1` showed an IC50 of 0.0001 to 0.1 µM. `CN1CCN(c2cc(NCc3cccnc3)n3ncc(Br)c3n2)CC1` showed an IC50 of 0.14 µM. `Brc1cnn2c(NCc3cccnc3)cc(C3CCOCC3)nc12` was tested, and the IC50 was 0.0001 to 0.1 µM. In the case of `OC[C@H]1CCCC[C@H]1Nc1cc(NCc2cccnc2)n2ncc(Br)c2n1`, the IC50 is reported as 0.0001 to 0.1 µM. `CC(=O)N1CCC(c2cc(NCc3cccnc3)n3ncc(Br)c3n2)CC1` gave an IC50 of 0.0001 to 0.1 µM. `Brc1cnn2c(NCc3ccc4[nH]cnc4c3)cc(C3CCCCC3)nc12` gave an IC50 of 0.0001 to 0.1 µM. With `Brc1cnn2c(NCc3cccnc3)cc(C3CCNCC3)nc12` the IC50 was 0.0001 to 0.1 µM. Molecule `OCC1(Nc2cc(NCc3cccnc3)n3ncc(Br)c3n2)CCCC1` has an IC50 of 0.0001 to 0.1 µM. Work on `Brc1cnn2c(NCc3ccc4[nH]cnc4c3)cc(C3CCNCC3)nc12` yielded an IC50 of 0.0001 to 0.1 µM. `CCc1cnn2c(NCc3ccc(OC)[n+]([O-])c3)cc(-c3ccccc3F)nc12` was tested, and the IC50 was 0.0001 to 0.1 µM. In the case of `CCc1cnn2c(NCc3ccnc(O)c3)cc(-c3ccccc3)nc12`, the IC50 is reported as 0.0001 to 0.1 µM. `O=c1ccc(CNc2cc(C3CCCCC3)nc3c(Br)cnn23)c[nH]1` showed an IC50 of 0.0001 to 0.1 µM. Work on `Brc1cnn2c(NCc3cccnc3)cc(-c3ccco3)nc12` yielded an IC50 of 0.0001 to 0.1 µM.
